Source: patent US5332427A, “Wood preservatives” (priority 1991, dated 1994)

Columns and labels:
[1] = system: Tyromyces palustris; assay: Wood weight reduction after weather resistance operation, test method of Japan Wood Preservation Association, Tyromyces palustris/Japanese cedar (Test Example 3); conditions: oil formulation, Japanese cedar, 30 weather resistance cycles, 8 weeks
Method: (§1) An oil formulation of each of the test compounds shown in Table 5 was prepared according to Formulation Example 1 and was tested based on the test method of Japan Wood Preservation Association. The summary of the test method is as follows:
(§2) The cut end surfaces of a wooden piece of Japanese beech or Japanese cedar (thickness: 5 mm, width: 20 mm, length: 40 mm; the surface of 40×20 mm is of straight grain) were sealed with an epoxy resin and the wooden piece was impregnated with the oil formulation (110±10 g/m^2 surface area), and thereafter air-dried for 20 days to prepare a test specimen. The test specimen was dipped in still water [water:wooden piece=10:1 (volume ratio)] at 25°±3° C. for 5 hours, and then the water was volatilized at 40±2° C. for 19 hours. This weather resistance operation was repeated 30 times. The test specimen after the weather resistance operation was dried at 60°±2° C. for 48 hours and then placed in a desicator for about 30 minutes, after which the weight (W3) of the test specimen was measured. The test described above was repeated for 9 wooden pieces. The test specimen was sterilized and then, placed in a culture vial in which wood rotting fungi (Coriolus versicolor/Japanese beech, Tyromyces palustris/Japanese cedar) were being cultured, in which cultivation was effected at 26°±2° C. at a humidity of 80% for 8 weeks. After 8 weeks, the test specimen was taken out of the culture vial and the mycelium and other extraneous matters were removed therefrom, after which the test specimen was dried at 60°±2° C. for 48 hours and placed in a desicator for about 30 minutes. Thereafter, the weight (W4) of the test specimen was measured. The weight reduction percentage was calculated according to the following equation: [formula]

[2] = system: Coriolus versicolor; assay: Wood weight reduction after weather resistance operation, test method of Japan Wood Preservation Association, Coriolus versicolor/Japanese beech (Test Example 3); conditions: oil formulation, Japanese beech, 30 weather resistance cycles, 8 weeks
Method: as §1, §2

[3] = system: Coriolus versicolor; assay: Mycelium growth inhibition on potato dextrose agar medium, Coriolus versicolor (Test Example 2); type: cell-based; conditions: four days after inoculation
Method: (§3) Each of the test compounds shown in Tables 3 and 4 was dissolved in a definite amount of dimethylsulfoxide to prepare a 1% W/V solution. A definite amount of the resulting formulation was added to a potato dextrose agar medium just after sterilization (using a moist heat sterilizer) and about 20 cc of the mixture was poured into a Petri dish of 9 cm in diameter and the Petri dish was placed at room temperature. After the medium was solidified, mycelium from a colony of Coriolus versicolor or Tyromyces palustris cultured previously was punched with a cork borer of 5 mm in diameter and the mycelium was inoculated at the center of the test medium. Four days after the inoculation, the diameter of colony extended from the inoculation point was measured and the percentage of mycelium growth inhibition was calculated according to the following equation: [formula]

[4] = system: Tyromyces palustris; assay: Mycelium growth inhibition on potato dextrose agar medium, Tyromyces palustris (Test Example 2); type: cell-based; conditions: four days after inoculation
Method: as §3

[5] = Discoloration (coloration) of oil formulation-coated filter paper under irradiation with light (Test Example 1); type: physicochemical; parameters: key: -: No discoloration (coloration); +: Slight discoloration (coloration); ++: Prominent discoloration (coloration); conditions: 1% oil formulation, 100 ml per m^2 of filter paper, light of 6000-7000 lux for 5 minutes
Method: A 1% oil formulation of each of the test compounds shown in Table 2 was prepared according to Formulation Example 1. The oil formulation was coated on a filter paper having a diameter of 5.5 cm in an amount of 100 ml of the oil formulation per m^2 of the filter paper and the filter paper was air-dried. The filter paper thus prepared was subjected to irradiation with light of 6000-7000 lux for 5 minutes and then, taken out, after which the degree of discoloration (coloration) was observed. The degree of discoloration (coloration) was determined based on the following standard.
No discoloration (coloration): -
Slight discoloration (coloration): +
Prominent discoloration (coloration): ++

Row | Compound | Average weight reduction percentage ([1]; concentration 1.0%) [%] | Average weight reduction percentage ([2]; concentration 1.0%) [%] | Percentage of growth inhibition for Coriolus versicolor ([3]; 1 ppm) [Percentage] | Percentage of growth inhibition for Coriolus versicolor ([3]; 2 ppm) [Percentage] | Percentage of growth inhibition for Coriolus versicolor ([3]; 4 ppm) [Percentage] | Percentage of growth inhibition for Tyromyces palustris ([4]; 1 ppm) [Percentage] | Percentage of growth inhibition for Tyromyces palustris ([4]; 2 ppm) [Percentage] | Percentage of growth inhibition for Tyromyces palustris ([4]; 4 ppm) [Percentage] | Degree of discoloration (coloration) [5] | Average weight reduction percentage ([1]; concentration 0.5%) [%] | Average weight reduction percentage ([2]; concentration 0.5%) [%]
1 | 3-Iodo-2-propenylbutyl carbamate [Compound (B)] | 0.78 | 7.6 | 81.3 | 91.9 | 100 | 80.5 | 88.7 | 100 | + |  | 
2 | CC(C)(C)C(O)/C(=C\c1ccc(Cl)cc1Cl)n1cncn1 (single isomer, unassigned; (-)) [Compound (1), (-)-(E)-1-(2,4-dichlorophenyl)-4,4-dimethyl-2-(1,2,4-triazol-1-yl)-1-penten-3-ol] | 0.19 | 0.64 | 86.1 | 93.9 | 98.3 | 79.1 | 93.0 | 95.6 | - | 0.25 | 0.70
3 | CC(C)(C)C(O)/C(=C\c1ccc(Cl)cc1)n1cncn1 (single isomer, unassigned; (-)) [Compound (2), (-)-(E)-1-(4-chlorophenyl)-4,4-dimethyl-2-(1,2,4-triazol-1-yl)-1-penten-3-ol] |  |  | 85.3 | 87.2 | 93.9 | 94.6 | 98.8 | 100 | - |  | 
4 | CCOC(=O)OCC(I)=C(Br)I [Compound (A), 3-Bromo-2,3-diiodo-2-propenylethyl carbonate] | 3.1 | 3.9 | 20.0 | 41.7 | 72.8 | 26.6 | 43.0 | 63.3 |  |  | 
5 | Clc1ccc(OCOCC#CI)cc1 [Compound (C), 4-Chlorophenyl-3-iodopropargyl formal] | 0.34 | 1.1 | 68.2 | 88.7 | 97.9 | 77.0 | 98.6 | 100 | ++ |  | 
